Test results published in US20200255492A1, “LEPTIN PEPTIDES AND THEIR USE FOR TREATING NEUROLOGICAL DISORDERS” (UNIVERSITY OF DUNDEE, priority 2017, published 2020).

Experiments:
[1] = tested on: differentiated SH-SY5Y human neuronal cells; test: MTT assay of mitochondrial activity (cell viability); type: cell-based; settings: 10 nM; n=11
Procedure: The human neuroblastoma cell line, SH-SY5Y (ECACC, UK) was maintained in Dulbecco's Modified Eagle Medium supplemented with glucose ([…]) and 10% (v/v) cosmic calf serum (Fisher Scientific, UK) at 37° C. in a humidified atmosphere of 5% CO2, 95% air and allowed to reach 70-80% confluence before seeding. Cells (passage 10-18) were plated at 10 000 cells per well in 96 well tissue culture plates (Nunc, VWR, UK) and at a density of 2×10^5 cells in 35 mm dishes for protein extraction. To induce differentiation, cells were cultured in DMEM supplemented with glucose ([…]), 1% (v/v) cosmic calf serum and 10 μM retinoic acid for 5 days. Thereafter they were incubated in DMEM supplemented with glucose ([…]), serum replacement 2 (2%; Sigma, UK) and 18 μM 5-fluorodeoxyuridine to inhibit proliferation of undifferentiated cells. The 50% of the medium was changed every 2-3 days and pharmacological treatment was carried out 7 days after switching to this medium. Reagents used were (from Sigma UK unless stated) 0.1-10 nM human leptin and leptin (116-130); 0.1-10 nM leptin (22-56; Bachem; Switzerland); 10 nM leptin (116-121) leptin (117-122), leptin (124-129) or leptin (125-130; all Severn Biotech, UK); 5 μM copper chloride; […], 5 μM WP1066 or 50 nM wortmannin. All treatments were added to the culture at the same time and survival assays were carried out after 96 h treatment. Protein samples for signaling ELISA were extracted 3 h after exposure to the relevant reagents and for biomarker expression after 72 hours.
The concentration of lactate dehydrogenase (LDH) in the culture medium or the mitochondrial activity within cells was used to monitor the level of cell death, as previously (Oldreive and Doherty 2010). In certain experiments, a Crystal violet assay was used to assess total cell number. Cells were fixed in neutral buffered formalin and washed 3 times in PBS prior to staining with 0.01% crystal violet acetate for 5 min. Plates were washed 5-10 times in dH2O and cells solubilised in 100 μl dimethyl sulfoxide (DMSO) before reading the absorbance on a Biohit BP100 plate reader. For all assays, data is expressed as percentage relative to control, untreated wells to normalize for differences in plating density between individual experiments.
To confirm the findings of the LDH assay, cells were treated with Aβ1-42 alone or with a 10 nM of leptin, leptin (116-130) or the listed hexamers, and mitochondrial activity, as a measure of cell viability, determined by MTT assay. A significant increase in mitochondrial activity was detected following treatment with either leptin or leptin (116-130; both 10 nM). […] Thus for Aβ1-42-treated cells, 10 nM leptin and 10 nM leptin (116-130) increased mitochondrial activity by 32.6±5.2% and 40.9+5.8% respectively compared with Aβ1-42 alone (n=11; P<0.001; FIG. 11B); an effect that was mirrored by 10 nM leptin (116-121) and leptin (117-122); 43.61±3.9% and 40.5±3.7*% (n=11; P<0.001; FIG. 11B), but not by 10 nM leptin (124-129) or leptin (125-130) (n=11; P>0.5; FIG. 11B). This reinforces the findings from the LDH assay that similar to either leptin or leptin (116-130), treatment with leptin (116-121) or leptin (117-122) reduces neuronal death in response to AD-linked toxins in vitro.

[2] = tested on: GluA1 surface expression in cultured hippocampal neurons; test: Surface labelling of AMPA receptor subunit GluA1 (immunocytochemistry); type: cell-based, Sprague Dawley rats; settings: for GluA1 surface expression, low concentration alone: 10 nM; for surface GluA1 expression: 50 nM, 15 min; for GluA1 staining in the presence of bpV: bpV plus leptin or leptin (116-130); for GluA1 surface expression in the presence of Aβ1-42: leptin peptide 10 nM plus Aβ1-42
Procedure: Hippocampal cultures were prepared from neonatal Sprague Dawley rats as before (O'Malley et al. 2007). Briefly, neonatal Sprague Dawley rats (1-3 days old) were killed by cervical dislocation in accordance with Schedule 1 of the United Kingdom Government Animals (Scientific Procedures) Act, 1986 and the hippocampi removed. After washing in HEPES buffered saline (HBS) comprising (mM): NaCl 135; KCl 5; CaCl2 1; MgCl2 1; HEPES 10; D-glucose 25 at pH 7.4; cells were treated with protease Type X and Type XIV (0.5 mg/ml; Sigma) for 25 min at room temperature. Dissociated cells were plated onto sterile dishes (Falcon 3001) treated with poly-1-lysine (20 μg/ml; 1-2 h) and maintained in MEM with serum replacement-2 (Sigma) in a humidified atmosphere of 5% CO2 and […] at 37° C. for up to 3 weeks.
To monitor GluA1 surface expression, immunocytochemistry was performed on hippocampal cultures (7-14 DIV) as before (Moult et al. 2010). Neurons were treated with agents for 20 min at room temperature (20-22° C.) before incubation with an antibody against an N-terminal region of GluA1 (sheep anti-GluR1; in house antibody against synthetic peptide (RTSDSRDHTRVDWKR) corresponding to 253-267 residues of GluR1; 1:100; Moult et al. 2010) at 4° C. Neurons were then fixed with 4% paraformaldehyde (5 min) before adding an appropriate fluorescently labelled secondary.
Trafficking of AMPA receptors to and away from synapses is crucial for various forms of activity-dependent synaptic plasticity (Collingridge et al. 2004). Our studies indicate that leptin regulates AMPA receptor trafficking as leptin promotes trafficking of GluA1 to hippocampal synapses (Moult et al. 2010). Moreover the ability of leptin to induce LTP in adult hippocampus requires the delivery of GluA1 to synapses by leptin (Moult et al. 2010). Thus, to assess if the leptin fragments also influence AMPA receptor trafficking processes, the surface expression of GluA1 was assayed in cultured hippocampal neurons (Moult et al. 2010). In agreement with previous studies, application of leptin (50 nM; 15 min) increased surface GluA1 expression to 184±7%; (n=36; P<0.001; FIG. 2C,D) compared with control hippocampal neurons. Similarly GluA1 surface expression was elevated (to 160±6% of control; n=36; P<0.001) after exposure to 50 nM leptin (116-130; FIG. 2C,D), whereas GluA1 surface expression (98±4% of control; n=36; P>0.05) was not altered after treatment with 50 nM leptin (22-56).

Substance: SCSLPQ (listed as Mus musculus) [leptin (116-121)]
- increase in mitochondrial activity compared with Aβ1-42 alone [1]: 43.61±3.9%

Substance: leptin: the metabolic hormone leptin, whole (full length) leptin molecule; human leptin from Sigma in SH-SY5Y work
- GluA1 surface expression, low concentration alone [2]: 113±7 % of control
- surface GluA1 expression [2]: 184±7 % of control
- GluA1 staining in the presence of bpV [2]: 131±6.6 % of control
- GluA1 surface expression in the presence of Aβ1-42 [2]: 101±4 % of control
- increase in mitochondrial activity compared with Aβ1-42 alone [1]: 32.6±5.2%

Substance: leptin (22-56): leptin fragment amino acids 22-56 (Bachem), comparison fragment (VPIQKVQDDTKTLIKTIVTRINDISHTQSVSSKQK; UniProt P41159 22-56, looked up, fragment) [reference compound]
- GluA1 surface expression, low concentration alone [2]: no significant effect on GluA1 trafficking per se
- surface GluA1 expression [2]: 98±4 % of control
- GluA1 surface expression in the presence of Aβ1-42 [2]: 51±2 % of control

Substance: Aβ1-42: amyloid beta 1-42, toxin used in the AD models [reference compound]
- GluA1 surface expression, Aβ1-42 alone ([2]; 500 nM, 20 min, control Aβ42-1-treated neurons): 70±2 % of control

Substance: SCSLPQTSGLQKPES (listed as Mus musculus) [leptin (116-130)]
- surface GluA1 expression [2]: 160±6 % of control
- GluA1 staining in the presence of bpV [2]: 148±8.1 % of control
- GluA1 surface expression in the presence of Aβ1-42 [2]: 97±4 % of control
- increase in mitochondrial activity compared with Aβ1-42 alone [1]: 40.9 ± 5.8%

Substance: CSLPQT (listed as Mus musculus) [leptin (117-122)]
- increase in mitochondrial activity compared with Aβ1-42 alone [1]: 40.5±3.7%
